# Reference: US8852632B2, “Pharmaceutical formulation containing a release rate controlling composition” (Merck Sharp & Dohme Corp., priority 2004, dated 2014)
# Assay: Hygroscopicity (vapor sorption analysis)
# Type: physicochemical
# Procedure: Hygroscopicity data was obtained on a VTI Symmetrical Vapor Sorption Analyzer Model SGA-1. Data was collected at room temperature from 5-95% relative humidity and back, 5% relative humidity change per step. Equilibrium conditions were 0.01 weight percent change in 5 minutes with a maximum equilibration time of 180 minutes. […] When equilibrated back down to 5% RH, the material returned back to approximately its dry weight.
structure (smiles),measurement,setting,value
Cc1nnc(C(=O)NC(C)(C)c2nc(C(=O)NCc3ccc(F)cc3)c(O)c(=O)n2C)o1,XRPD analysis after the hygroscopicity experiment (phase stability),after cycling 5-95% relative humidity and back,had not changed phases
same,weight increase (hygroscopicity),equilibrated at 95% RH at 25° C.,1.8%
